Measurements as given in US10670605B2, “Cysteine reactive probes and uses thereof” (The Scripps Research Institute, priority 2015, dated 2020).
Several values for one entry are separate records, joined by “and”; a condition that tells them apart may be missing. Equal values may be shown once. Values belong to the compound of their own block, whether it stands above or below them.

Legend:
O00541_C272 = O00541_C272 (Homo sapiens, UniProt O00541); assay: Competitive isoTOP-ABPP, cell lysates; type: binding
Chain of O00541_C272 (O00541 whole entry, looked up): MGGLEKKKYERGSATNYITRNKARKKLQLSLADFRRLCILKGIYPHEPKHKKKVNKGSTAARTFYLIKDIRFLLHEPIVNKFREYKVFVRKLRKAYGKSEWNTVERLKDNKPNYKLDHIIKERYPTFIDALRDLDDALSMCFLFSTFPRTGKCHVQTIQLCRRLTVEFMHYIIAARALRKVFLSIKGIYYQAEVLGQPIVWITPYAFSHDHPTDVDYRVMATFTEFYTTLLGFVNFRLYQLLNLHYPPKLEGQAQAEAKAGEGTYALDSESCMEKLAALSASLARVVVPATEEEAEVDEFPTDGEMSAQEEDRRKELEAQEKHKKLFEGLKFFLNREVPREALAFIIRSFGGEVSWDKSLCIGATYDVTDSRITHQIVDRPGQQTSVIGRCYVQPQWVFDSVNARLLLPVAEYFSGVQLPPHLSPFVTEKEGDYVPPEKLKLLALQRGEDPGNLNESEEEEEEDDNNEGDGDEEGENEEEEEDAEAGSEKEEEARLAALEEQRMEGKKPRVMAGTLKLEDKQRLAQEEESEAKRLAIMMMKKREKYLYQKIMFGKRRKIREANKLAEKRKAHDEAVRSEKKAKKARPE

RRAGC C358 (Q9HB90) = RRAGC C358 (Q9HB90) (Homo sapiens, UniProt Q9HB90); assay: Competitive isoTOP-ABPP, cell lysates; type: binding; details: for isoTOP-ABPP reactivity ratio, Q9HB90_C358 / isoTOP-ABPP reactivity profile ratio, Q9HB90_C358: 500 μm
Chain of RRAGC C358 (Q9HB90) (Q9HB90 2-399 limits assumed): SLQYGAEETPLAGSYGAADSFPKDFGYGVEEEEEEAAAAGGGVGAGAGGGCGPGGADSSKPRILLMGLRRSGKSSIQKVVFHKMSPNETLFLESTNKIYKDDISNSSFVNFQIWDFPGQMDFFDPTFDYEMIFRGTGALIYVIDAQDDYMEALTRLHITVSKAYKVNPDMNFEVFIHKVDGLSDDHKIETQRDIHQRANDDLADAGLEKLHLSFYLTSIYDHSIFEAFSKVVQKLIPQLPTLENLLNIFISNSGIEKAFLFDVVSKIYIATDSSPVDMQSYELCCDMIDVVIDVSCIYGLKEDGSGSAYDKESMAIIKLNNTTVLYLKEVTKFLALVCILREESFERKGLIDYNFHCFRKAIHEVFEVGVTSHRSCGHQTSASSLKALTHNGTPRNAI
Chain of RRAGC C358 (Q9HB90) (Q7L523 whole entry partner): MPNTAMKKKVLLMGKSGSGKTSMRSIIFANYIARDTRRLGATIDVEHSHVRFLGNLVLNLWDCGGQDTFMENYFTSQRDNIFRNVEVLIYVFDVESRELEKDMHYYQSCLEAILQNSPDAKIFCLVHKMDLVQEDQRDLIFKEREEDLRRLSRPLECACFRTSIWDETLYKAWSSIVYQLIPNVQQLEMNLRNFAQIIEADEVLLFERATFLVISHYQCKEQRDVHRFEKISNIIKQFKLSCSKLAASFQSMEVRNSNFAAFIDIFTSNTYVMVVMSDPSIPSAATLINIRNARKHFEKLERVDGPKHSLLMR

MLTK C22 (Q9NYL2) = MLTK C22 (Q9NYL2) (Homo sapiens, UniProt Q9NYL2); assay: Competitive isoTOP-ABPP, cell lysates; type: binding; details: for isoTOP-ABPP reactivity ratio, Q9NYL2_C22 / isoTOP-ABPP reactivity profile ratio, Q9NYL2_C22: 500 μm, in-vitro_ramos_231
Chain of MLTK C22 (Q9NYL2) (Q9NYL2 whole entry): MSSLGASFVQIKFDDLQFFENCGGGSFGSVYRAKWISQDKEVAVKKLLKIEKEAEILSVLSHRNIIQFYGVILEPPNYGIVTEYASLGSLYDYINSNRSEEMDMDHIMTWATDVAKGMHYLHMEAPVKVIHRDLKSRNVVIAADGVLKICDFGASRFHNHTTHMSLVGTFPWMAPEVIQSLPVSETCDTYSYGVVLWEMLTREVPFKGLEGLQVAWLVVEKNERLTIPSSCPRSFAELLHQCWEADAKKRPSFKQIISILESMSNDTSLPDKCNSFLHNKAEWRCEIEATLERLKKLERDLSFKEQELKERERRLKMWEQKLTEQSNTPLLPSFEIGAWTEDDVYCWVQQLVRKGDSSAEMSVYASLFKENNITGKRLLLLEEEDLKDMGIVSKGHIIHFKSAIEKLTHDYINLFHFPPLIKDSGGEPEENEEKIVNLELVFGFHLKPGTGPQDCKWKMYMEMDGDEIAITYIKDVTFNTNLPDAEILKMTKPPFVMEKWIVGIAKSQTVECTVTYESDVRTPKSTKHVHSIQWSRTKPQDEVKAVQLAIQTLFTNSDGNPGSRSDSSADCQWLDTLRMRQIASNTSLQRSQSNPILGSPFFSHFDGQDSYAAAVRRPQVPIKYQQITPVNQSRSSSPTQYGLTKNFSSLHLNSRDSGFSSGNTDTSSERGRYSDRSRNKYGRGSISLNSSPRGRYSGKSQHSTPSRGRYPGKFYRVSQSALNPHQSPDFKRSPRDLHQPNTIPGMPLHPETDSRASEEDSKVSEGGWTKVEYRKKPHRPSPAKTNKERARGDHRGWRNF

USP28 C171 (Q96RU2) = target: T1, USP28 C171 (Q96RU2) (Homo sapiens, UniProt Q96RU2); assay: Competitive isoTOP-ABPP, cell lysates; type: binding
T1 sequence (Q96RU2 1-1077): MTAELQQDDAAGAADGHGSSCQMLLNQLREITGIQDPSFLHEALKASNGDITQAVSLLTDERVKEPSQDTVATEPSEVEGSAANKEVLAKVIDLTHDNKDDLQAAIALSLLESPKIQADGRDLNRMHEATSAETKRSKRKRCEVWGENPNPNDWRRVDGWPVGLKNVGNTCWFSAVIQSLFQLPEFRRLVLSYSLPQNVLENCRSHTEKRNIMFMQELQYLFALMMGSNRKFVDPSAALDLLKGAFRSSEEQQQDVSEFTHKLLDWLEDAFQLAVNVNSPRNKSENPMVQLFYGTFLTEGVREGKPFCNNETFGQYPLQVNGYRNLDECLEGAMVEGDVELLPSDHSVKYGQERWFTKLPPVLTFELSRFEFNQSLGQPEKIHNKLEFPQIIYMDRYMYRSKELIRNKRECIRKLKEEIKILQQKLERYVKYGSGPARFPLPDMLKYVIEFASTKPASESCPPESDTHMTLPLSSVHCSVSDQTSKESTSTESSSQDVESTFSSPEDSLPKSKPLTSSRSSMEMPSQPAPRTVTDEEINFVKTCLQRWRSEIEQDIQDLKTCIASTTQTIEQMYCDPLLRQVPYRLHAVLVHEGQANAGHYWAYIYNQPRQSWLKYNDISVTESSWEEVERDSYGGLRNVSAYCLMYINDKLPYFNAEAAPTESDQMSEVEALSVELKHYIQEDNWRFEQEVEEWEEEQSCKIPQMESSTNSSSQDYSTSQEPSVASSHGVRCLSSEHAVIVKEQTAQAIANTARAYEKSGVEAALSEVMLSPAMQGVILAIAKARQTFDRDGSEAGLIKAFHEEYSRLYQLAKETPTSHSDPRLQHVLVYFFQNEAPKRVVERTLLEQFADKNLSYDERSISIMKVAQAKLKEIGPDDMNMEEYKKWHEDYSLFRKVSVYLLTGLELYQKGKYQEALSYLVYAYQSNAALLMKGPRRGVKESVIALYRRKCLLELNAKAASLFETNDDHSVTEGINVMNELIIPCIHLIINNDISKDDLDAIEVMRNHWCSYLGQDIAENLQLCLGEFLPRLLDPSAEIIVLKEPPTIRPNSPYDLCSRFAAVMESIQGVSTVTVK

[1] = target: cysteines in MDA-MB-231 and Ramos cells (Homo sapiens, UniProt P46109); assay: Competitive isoTOP-ABPP in situ (fragment-treated cells); type: cell-based; details: 200 μM, insitu
Chain of cysteines in MDA-MB-231 and Ramos cells (P46109 whole entry, the tested form may be a part): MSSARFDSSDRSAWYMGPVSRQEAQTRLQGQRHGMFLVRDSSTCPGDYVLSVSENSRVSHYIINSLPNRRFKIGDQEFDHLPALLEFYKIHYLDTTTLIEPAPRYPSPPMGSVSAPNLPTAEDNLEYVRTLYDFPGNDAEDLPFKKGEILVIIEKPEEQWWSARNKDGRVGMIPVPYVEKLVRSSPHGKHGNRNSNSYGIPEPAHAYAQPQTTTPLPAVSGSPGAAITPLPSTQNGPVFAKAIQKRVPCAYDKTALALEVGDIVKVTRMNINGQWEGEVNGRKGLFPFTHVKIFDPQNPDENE

O114933_C98 = O114933_C98 (Homo sapiens, UniProt O14933); assay: Competitive isoTOP-ABPP, cell lysates; type: binding; details: 500 μm
Chain of O114933_C98 (O14933 whole entry): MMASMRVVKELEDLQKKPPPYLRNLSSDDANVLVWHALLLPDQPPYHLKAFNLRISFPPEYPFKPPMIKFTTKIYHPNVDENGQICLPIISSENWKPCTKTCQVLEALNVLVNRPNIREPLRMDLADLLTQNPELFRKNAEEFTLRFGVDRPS

isoTOP-ABPP ratio (reactivity profile), O00541_C272 (O00541_C272; 500 μm in-vitro ramos): 2.6
isoTOP-ABPP ratio (reactivity profile), Q9HB90_C358 (RRAGC C358 (Q9HB90); 500 μm in-vitro ramos): 0.9
SMILES: CC(Br)C(=O)Nc1cc(C(F)(F)F)cc(C(F)(F)F)c1 (centres unmarked) [compound 24]

isoTOP-ABPP ratio (reactivity profile), Q9HB90_C358 (RRAGC C358 (Q9HB90); 500 μm in-vitro ramos_231): 0.9
isoTOP-ABPP ratio (reactivity profile), Q9NYL2_C22 (MLTK C22 (Q9NYL2); 500 μm in-vitro ramos_231): 0.8
SMILES: CC(Cl)C(=O)Nc1cc(C(F)(F)F)cc(C(F)(F)F)c1 (centres unmarked) [compound 25]

isoTOP-ABPP ratio (reactivity profile), O00541_C272 (O00541_C272; 500 μm in-vitro ramos_231): 1.1
isoTOP-ABPP ratio (reactivity profile), Q9HB90_C358 (RRAGC C358 (Q9HB90); 500 μm in-vitro ramos_231): 0.3
isoTOP-ABPP ratio (reactivity profile), Q9NYL2_C22 (MLTK C22 (Q9NYL2); 500 μm in-vitro ramos_231): 1.1
isoTOP-ABPP ratio (reactivity profile), Q96RU2_C171 (USP28 C171 (Q96RU2); 500 μm in-vitro ramos_231): 0.9 and 1.2
SMILES: CC(C)CCOCCNC(=O)CCl [compound 27]

isoTOP-ABPP ratio (reactivity profile), Q9HB90_C358 (RRAGC C358 (Q9HB90); 500 μm in-vitro ramos_231): 1.1
isoTOP-ABPP ratio (reactivity profile), Q9NYL2_C22 (MLTK C22 (Q9NYL2); 500 μm in-vitro ramos_231): 1.4
SMILES: COc1ccccc1OCCNC(=O)CCl [compound 28]

isoTOP-ABPP ratio (reactivity profile), O00541_C272 (O00541_C272; 500 μm in-vitro ramos_231): 0.9
isoTOP-ABPP ratio P46109_C249 ([1]; ramos): 4.2
isoTOP-ABPP ratio (reactivity profile), Q9NYL2_C22 (MLTK C22 (Q9NYL2); 500 μm in-vitro ramos_231): 1.2
SMILES: O=C(CCl)N1CCN(CC(=O)N2CCOCC2)CC1 [compound 29]

isoTOP-ABPP reactivity ratio, O114933_C98 (O114933_C98; in-vitro_ramos): 2.1
isoTOP-ABPP ratio (reactivity profile), Q9HB90_C358 (RRAGC C358 (Q9HB90); 500 μm in-vitro ramos): 1.0
isoTOP-ABPP ratio (reactivity profile), Q9NYL2_C22 (MLTK C22 (Q9NYL2); 500 μm in-vitro ramos): 1.1
SMILES: CCN(CC)c1ccc(S(N)(=O)=O)cc1NC(=O)CCl [compound 30]

isoTOP-ABPP reactivity ratio, Q9HB90_C358 (RRAGC C358 (Q9HB90); in-vitro_ramos_231): 2.3
SMILES: C=CC(=O)N(Cc1cccnc1)c1cc(C(F)(F)F)cc(C(F)(F)F)c1 [compound 31]

isoTOP-ABPP reactivity ratio, O114933_C98 (O114933_C98; in-vitro_ramos): 4.6
isoTOP-ABPP reactivity ratio, O114933_C98 (O114933_C98; in-vitro_ramos_231): 13.8
isoTOP-ABPP reactivity ratio, Q9HB90_C358 (RRAGC C358 (Q9HB90); in-vitro_ramos): 1.2
isoTOP-ABPP reactivity ratio, Q9HB90_C358 (RRAGC C358 (Q9HB90); in-vitro_ramos_231): 1.9
isoTOP-ABPP reactivity ratio, Q9NYL2_C22 (MLTK C22 (Q9NYL2)): 2.1
SMILES: CC(C)(C)c1cc(NC(=O)CCl)on1 [compound 32]

isoTOP-ABPP reactivity ratio, O114933_C98 (O114933_C98; in-vitro_ramos_231): 0.8
isoTOP-ABPP reactivity ratio, Q9NYL2_C22 (MLTK C22 (Q9NYL2)): 0.8
SMILES: O=C(CCl)N(Cc1ccc(F)cc1)C12CC3CC(CC(C3)C1)C2 [compound 34]

isoTOP-ABPP reactivity ratio, O114933_C98 (O114933_C98; in-vitro_ramos): 1.7
isoTOP-ABPP reactivity ratio, O114933_C98 (O114933_C98; in-vitro_ramos_231): 1.6
isoTOP-ABPP ratio P46109_C249 [1]; 231: 1.6
isoTOP-ABPP reactivity ratio, Q9HB90_C358 (RRAGC C358 (Q9HB90); in-vitro_ramos_231): 1.1
isoTOP-ABPP reactivity ratio, Q9NYL2_C22 (MLTK C22 (Q9NYL2)): 1.2
isoTOP-ABPP reactivity ratio, Q96RU2_C171 (USP28 C171 (Q96RU2); 500 μm, in-vitro_ramos_231): 3.3
SMILES: C=CC(=O)Nc1cc(F)c(N2CCN(C(=O)OC(C)(C)C)CC2)c(F)c1 [compound 38]

isoTOP-ABPP reactivity ratio, O114933_C98 (O114933_C98; in-vitro_ramos): 1.3
SMILES: C=CC(=O)Nc1cc(C)c(Br)cc1C [compound 40]

isoTOP-ABPP reactivity ratio, O114933_C98 (O114933_C98; in-vitro_ramos): 1.1
isoTOP-ABPP reactivity ratio, O114933_C98 (O114933_C98; in-vitro_ramos_231): 1.2
isoTOP-ABPP reactivity ratio, Q9HB90_C358 (RRAGC C358 (Q9HB90); in-vitro_ramos_231): 1.3
isoTOP-ABPP reactivity ratio, Q9NYL2_C22 (MLTK C22 (Q9NYL2)): 1.5
SMILES: Cc1ccc(C=C(C#N)C(=O)NCCN2CCOCC2)cc1 [compound 41]

isoTOP-ABPP reactivity profile ratio, Q9NYL2_C22 (MLTK C22 (Q9NYL2)): 2.9
SMILES: COc1cc(NC(=O)CCl)cc(OC)c1 [compound 43]

isoTOP-ABPP ratio P46109_C249 [1]; 231: 20.0
isoTOP-ABPP reactivity profile ratio, Q9NYL2_C22 (MLTK C22 (Q9NYL2)): 20.0
SMILES: CC1CCc2ccccc2N1C(=O)CCl (centres unmarked) [compound 45]

isoTOP-ABPP reactivity profile ratio, Q9HB90_C358 (RRAGC C358 (Q9HB90); in-vitro_ramos_231): 1.1
isoTOP-ABPP reactivity profile ratio, Q96RU2_C171 (USP28 C171 (Q96RU2); 500 μm, in-vitro_ramos_231): 0.9
SMILES: C=CC(=O)N(c1ccccc1)C1CCCCC1 [compound 46]

isoTOP-ABPP reactivity profile ratio, Q9HB90_C358 (RRAGC C358 (Q9HB90); in-vitro_ramos): 0.6
SMILES: C=CC(=O)N1CCC(Cc2ccccc2)CC1 [compound 53]
